Test results reported in patent publication US20250057910A1, “Application of Polypeptide in Preparation of Product for Preventing or Treating Skin Injury Diseases” (Sichuan Gooddoctor Panxi Pharmaceutical Co., Ltd., priority 2021, published 2025).
Ends that are not written are not given here.

Tests used:
[1] = tested on: SD rats; test: Healing of acute mechanical skin injuries in rats; assay type: in vivo, rat; conditions: for Wound healing rate: rats, acute mechanical injury, topical once a day, polypeptide 8 μg/cm^2, GeneTime 40 IU/cm^2, Mean ± SD, n = 6
Protocol: Experimental animals: SD male rats, SPF grade, 6 weeks old, weighing 180-220 g, from Beijing Vital River Laboratory Animal Technology Co., Ltd.; animal license number: SCXK (Beijing) 2016-0006; and certification number: NO.110011210104746538.
Experimental method: SPF grade SD rats were housed in clean and sterilized cages, and were given water and feeds and padding replacement at regular intervals every day. The cultivation was kept at a temperature of 20-26° C. with a humidity of 40%-70%. The rats were kept for one week to adapt to the environment. According to the random grouping method, the animals were divided into 3 groups: model control group (normal saline), GeneTime group (40 IU/cm^2, recombinant human epidermal growth factor topical solution, from Shenzhen Watsin Genetech Ltd.), and subject polypeptide group (8 μg/cm^2), with 6 animals in each group. After the rats were successfully anesthetized by intraperitoneal injection of 3% pentobarbital sodium, the hair at 1 cm from the expected wound edge was cut off, the expected wound area was first disinfected with iodophor, then locally disinfected with 75% alcohol, and a round full layer of skin wound with a diameter of 1.5 cm was made at the middle of the ear line down to 4 cm below the back, near the cervical side, with the spine as the middle line, as deep as the muscular layer. The same sized rubber ring was used to fix the surrounding skin to form an animal model of acute mechanical injury. After modeling, the rats' wounds were exposed to the environment and fed in individual cages. Upon changing dressings, debridement was first performed with iodophor, and then the wound was washed with a sterile normal saline and wiped to dryness. Rats in each group were given 40 μL of corresponding drug solution by locally applying to the wound once a day periodically. On Days 0, 3, 7, 10 and 14 of administration, the wounds of each group of rats were photographed, the areas of the wounds were calculated with image analysis software (Image J), and the wound healing rates were calculated according to the formula.

[2] = tested on: HMEC-1 cells (human microvascular endothelial cells); test: Proliferation of HMEC-1 cells (CCK-8); assay type: cell-based; conditions: 48 hours, 0% serum medium, FIG. 2
Protocol: (§1) Experimental method: Human microvascular endothelial cells (HMEC-1 cells) were cultured in 10% serum medium at 37° C. and 5% CO2, the culture fluid was changed every 1-2 days, and the cell concentration was controlled to be 4*10^6 cells/mL for passaging. The cells were collected and prepared into a concentration of 4*10^4 cells/mL with a serum-free medium, seeded into a 96-well cell culture plate with 100 uL per well, i.e., 4000 cells/well, and cultured at 37° C. and 5% CO2 to be adherent.
The polypeptide was dissolved in PBS solution and prepared into a stock solution with a concentration of 1 mg/mL. The polypeptide stock solution was prepared with 0% serum medium to test concentrations as the experimental groups; in the same manner, recombinant human vascular endothelial growth factor VEGF (100 ng/mL) was prepared and added as positive control; and for the blank control group, the same volume of 0% serum medium without drugs was added. For all the groups, 5 duplicate wells were incubated at 37° C. and 5% CO2 for 48 hours. The CCK-8 was used to detect cell proliferation: serum-free medium containing 10% CCK-8 was added to each well, and absorbances were measured at 450 nm by microplate reader after incubation in an incubator for 2 hours.

[3] = tested on: Balb-3T3 cells (mouse embryo fibroblasts); test: Proliferation of Balb-3T3 cells (CCK-8); assay type: cell-based; conditions: 48 hours, 2.5% FBS maintenance medium, FIG. 3
Protocol: as §1, with “Mouse embryo fibroblasts (Balb-3T3” for “Human microvascular endothelial cells (HMEC-1”, “3* 10^4” for “4*10^4”, “2.5% FBS maintenance” for “a serum-free”, “3000” for “4000”
The polypeptide was dissolved in 2.5% FBS maintenance medium and prepared into a stock solution with a concentration of 1 mg/mL. The polypeptide stock solution was prepared with 2.5% FBS maintenance medium to test concentrations as the experimental groups; in the same manner, recombinant human basic fibroblast growth factor FGF (50 ng/mL), and recombinant human platelet derived growth factor PDGF-BB (30 ng/mL) were prepared and added as positive control; and for the blank control group, the same volume of 2.5% FBS maintenance medium was added. For all the groups, 5 duplicate wells were incubated at 37° C. and 5% CO2 for 48 hours. CCK-8 was used to detect cell proliferation: the serum-free medium containing 10% CCK-8 was added to each well, and absorbances were measured at 450 nm by microplate reader after incubation in an incubator for 2 hours.

In the case of PAAEPVPL [polypeptide], the Wound healing rate ([1]; Day 0 (baseline)) is reported as 0.00 ± 0.00%, the Wound healing rate ([1]; Day 3) is reported as −23.77 ± 6.16% and the Wound healing rate ([1]; Day 7) is reported as −10.78 ± 7.90%. For the same sequence, the Wound healing rate ([1]; Day 10) was 18.90 ± 17.63%, the “Wound healing after mechanical skin injury in rats (statement in words)” value ([1]; Day 14, 8 μg/cm^2, vs model control) was “significant promotion of wound healing” and the Wound healing rate ([1]; Day 14) was 88.42 ± 4.57 %. The “Proliferation-promoting effect on the HMEC-1 cell line” value [2] was “significant effect of promoting proliferation” and the “Proliferation-promoting effect on the Balb-3T3 cell line” value [3] was “significant effect of promoting proliferation”.
